Source: patent US4439614A, “5,6-Methano-5,6-dihydroretinoids” (SRI International, priority 1982, dated 1984)

Assays:
[1] = test system: Hamster Tracheal Organ Culture; experiment: Reversal of keratinization in hamster tracheal organ culture; type: cell-based
Experimental: (§1) The ODC assay measures a compound's effect on the prevention of the induction of ODC. The tracheal organ culture assay measures a compound's ability to reverse keratinization. For comparison purposes retinoic acid was also tested by these assays.
The tracheal organ culture assay is carried out as follows. Tracheas are taken from hamsters that are in very early stages of vitamin A deficiency and placed in organ culture. At the time of culture, the animals are still gaining weight; the tracheal epithelium is generally low columnar or cuboidal, with only occasional patches of squamous metaplasia. […] All tracheas are grown in medium containing no retinoid for the first 3 days. […] Culture medium is changed three times a week, and all of the remaining tracheas are harvested at the end of 10 days in culture. Tracheas are fixed in 10% buffered formalin and embedded in paraffin.

Ornithine Decarboxylase [2] = experiment: Inhibition of induction of ornithine decarboxylase (ODC assay) by 12-O-tetradecanoylphorbol-13-acetate in mouse skin; type: in vivo; settings: topical, 1 hour before TPA (17 nmol), CD-1 mice
Experimental: as §1
The ODC assay is carried out as follows. Female Charles River CD-1 mice from Charles River Breeding Laboratories, Wilmington, Mass., are used (age 7 to 9 weeks). The dorsal hair of the mice is shaved 1 to 2 days before testing, and only mice showing no hair regrowth are used. […] The mice are killed by cervical dislocation five hours after TPA treatment. Determinations are done in triplicate.
The epidermis is obtained from the sacrificed animals. To obtain sufficient material, the dorsal skins from 2 to 3 mice in each treatment group are pooled. The depilatory agent Nudit® (Helena Rubinstein, New York) is applied to the shaved area of the skin; after 5 minutes, it is washed off thoroughly with cold tap water. Then the skin is excised and plunged immediately into ice-cold water; it is then placed in a 55° C. water bath for 30 seconds and reimmersed in ice-cold water for at least another 30 seconds.
The supernatant fraction remaining after centrifugation of the homogenate at 10,000×g for 30 seconds at 0° C. is used for the enzyme assay. Enzyme activity is determined using the microassay for ODC as described by Verma and Boutwell to measure the release of ^14 CO2 from DL-[1-^14 C]-ornithine (58 mCi/mmol) after incubation with the 10,000×g supernatant. The incubations are carried out by decanting, with a Pasteur pipette, 100 μL of the supernatant containing 100 to 120 μg of protein into two or three 15-mL Corex tubes in a shaking water bath at 37° C.

Ornithine Decarboxylase [3] = settings: prior-art epoxides; ODC induction in mouse epidermis by tumor-promoting phorbol esters; cited from earlier work

SMILES | Active Cultures (%) (reversal of keratinization) ([1]; conc 10^-8 M) | Active/Total Cultures (reversal of keratinization) ([1]; conc 10^-8 M) | Active Cultures (%) (reversal of keratinization) ([1]; conc 10^-9 M) | Active/Total Cultures (reversal of keratinization) ([1]; conc 10^-9 M) | Active Cultures (%) (reversal of keratinization) ([1]; conc 10^-10 M) | Active/Total Cultures (reversal of keratinization) ([1]; conc 10^-10 M) | Active Cultures (%) (reversal of keratinization) ([1]; conc 10^-11 M) | Active/Total Cultures (reversal of keratinization) ([1]; conc 10^-11 M) | % Inhibition of Control (inhibition of induction of ornithine decarboxylase by TPA in mouse skin) (Ornithine Decarboxylase [2]; dose 17 nmol) [%] | % Inhibition of Control (inhibition of induction of ornithine decarboxylase by TPA in mouse skin) (Ornithine Decarboxylase [2]; dose 1.7 nmol) | biological activity in the ornithine decarboxylase (ODC) assay (Ornithine Decarboxylase [3])
CCOC(=O)/C=C(C)/C=C/C=C(C)/C=C/C12CC1(C)CCCC2(C)C (stereo not drawn) [ethyl (E)-5,6-methano-5,6-dihydroretinoate] | 100 | 7/7 | 79 | 11/14 | 50 | 7/14 | 29 | 2/7 | 70 | – | –
CCOC(=O)c1ccc(/C=C(C)/C=C/C23CC2(C)CCCC3(C)C)cc1 (stereo not drawn) [(E)-1-(4-carbethoxyphenyl)-2-methyl-4-(2,2,6-trimethylbicyclo[4.1.0]hept-1-yl)-1,3-butadiene] | 100 | 7/7 | 77 | 10/13 | 29 | 4/14 | 29 | 2/7 | 80 | – | –
CC1=C(/C=C/C(C)=C/C=C/C(C)=C/C(=O)O)C(C)(C)CCC1 [(E)-retinoic acid, reference compound] | 100 | 236/236 | 88 | 419/474 | 52 | 134/256 | – | – | – | 87-91% | –
CC(/C=C/C12OC1(C)CCCC2(C)C)=C\C=C\C(C)=C\C(=O)O (stereo not drawn) [5,6-epoxy-5,6-dihydroretinoic acid] | – | – | – | – | – | – | – | – | – | – | exhibited biological activity
CCOC(=O)c1ccc(/C=C(\C)C=CC23OC2(C)CCCC3(C)C)cc1 (stereo not drawn) [(E)-1-(4-carbethoxy)-2-methyl-4-(1,2-epoxy-2,6,6,-trimethylcyclohex-1-yl)-1,3-butadiene] | – | – | – | – | – | – | – | – | – | – | exhibited biological activity
